Test results taken from ChEMBL document CHEMBL1201862, “PubChem BioAssay data set” (2004).
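Dose response: 5 concentrations. Exposure: 48 h. Format: 96-well plates. Endpoint: linear interpolation; highest concentration if not reached. GI50: concentration for 50% inhibition of growth.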 Calls of active or inactive are those of the source. Cut-off read from the data, not from the text of the source: active = GI50 up to about 1.1 µM and inactive = higher.

Key:
Experiment in all cases: growth of human tumour cells (NCI), 48 h
HOP-62 = tested on: HOP-62
U-251 = tested on: U-251
NCI-H23 = tested on: NCI-H23
UO-31 = tested on: UO-31
ACHN = tested on: ACHN
SF-295 = tested on: SF-295
A498 = tested on: A498
MOLT-4 = tested on: MOLT-4
RXF 393 = tested on: RXF 393
UACC-62 = tested on: UACC-62
SF-268 = tested on: SF-268
Malme-3M = tested on: Malme-3M
SNB-75 = tested on: SNB-75
SR = tested on: SR
SF-539 = tested on: SF-539

Measured: GI50

COc1ccc2oc(-c3ccncc3)cc(=O)c2c1
inactive: HOP-62 > 100 µM | U-251 73.3 µM | NCI-H23 > 100 µM | UO-31 > 100 µM | ACHN > 100 µM | SF-295 > 100 µM | A498 > 100 µM | MOLT-4 25.2 µM | RXF 393 > 100 µM | UACC-62 65.2 µM | SF-268 67.6 µM | Malme-3M 39.8 µM | SNB-75 > 100 µM

COC1(OC)C2(Cl)C(Cl)=C(Cl)C1(Cl)C1C=CC=CC12 (configuration not stated)
inactive: HOP-62 > 100 µM | SR > 100 µM | U-251 > 100 µM | NCI-H23 > 100 µM | UO-31 > 100 µM | ACHN > 100 µM | SF-539 > 100 µM | SF-295 > 100 µM | RXF 393 82.4 µM | UACC-62 73.5 µM | SF-268 > 100 µM | Malme-3M 31.6 µM | SNB-75 66.5 µM

O=C(NCCc1ccccc1)C1C(=O)C(=O)N(CCc2ccccc2)C1=O (configuration not stated)
inactive: SR > 100 µM | U-251 > 100 µM | NCI-H23 > 100 µM | UO-31 > 100 µM | ACHN > 100 µM | SF-539 > 100 µM | SF-295 > 100 µM | MOLT-4 > 100 µM | UACC-62 > 100 µM | SF-268 > 100 µM | Malme-3M > 100 µM | SNB-75 > 100 µM

Nc1c(-c2nc3ccccc3[nH]2)sc(=S)n1-c1ccc(Cl)cc1
inactive: HOP-62 25.6 µM | U-251 23.7 µM | NCI-H23 36.6 µM | UO-31 29.6 µM | ACHN 17.7 µM | SF-539 20.1 µM | SF-295 22.9 µM | A498 31 µM | MOLT-4 31.1 µM | RXF 393 23.8 µM | UACC-62 16.1 µM | SF-268 25.3 µM | Malme-3M 36.2 µM | SNB-75 27.7 µM

O=C(c1cccs1)N(C(=S)N1CCN(c2ccccc2)CC1)C1CCCCC1
inactive: HOP-62 > 100 µM | SR > 100 µM | U-251 > 100 µM | NCI-H23 > 100 µM | UO-31 > 100 µM | ACHN > 100 µM | SF-539 > 100 µM | SF-295 > 100 µM | MOLT-4 > 100 µM | RXF 393 > 100 µM | UACC-62 > 100 µM | SF-268 > 100 µM | Malme-3M > 100 µM | SNB-75 > 100 µM

O=C(O)CN1CCSc2ccccc2CN(CC(=O)O)CCSc2ccccc2C1
inactive: HOP-62 > 100 µM | SR 4.61 µM | U-251 > 100 µM | NCI-H23 > 100 µM | UO-31 > 100 µM | ACHN > 100 µM | SF-539 > 100 µM | SF-295 > 100 µM | A498 > 100 µM | UACC-62 > 100 µM | SF-268 > 100 µM | Malme-3M > 100 µM | SNB-75 > 100 µM

C/C=C/C(=O)Oc1cccc2cccnc12
inactive: HOP-62 26.7 µM | U-251 1.14 µM | NCI-H23 4.91 µM | UO-31 6.97 µM | ACHN 18.2 µM | SF-539 7.83 µM | SF-295 12.1 µM | MOLT-4 > 20.6 µM | RXF 393 12.4 µM | UACC-62 6.98 µM | SF-268 3.2 µM | Malme-3M 1.45 µM | SNB-75 14.4 µM

COc1cccc(NC(=O)CC(=O)N2N=C(N(CCC#N)c3ccccc3C)CC2c2ccccc2)c1 (configuration not stated)
inactive: HOP-62 > 100 µM | SR > 100 µM | U-251 > 100 µM | NCI-H23 > 100 µM | UO-31 > 100 µM | ACHN > 100 µM | SF-539 > 100 µM | SF-295 > 100 µM | MOLT-4 > 100 µM | RXF 393 > 100 µM | UACC-62 > 100 µM | SF-268 > 100 µM | Malme-3M > 100 µM | SNB-75 > 100 µM

COc1ccc2c(c1O)C(=O)C(CCC(=O)O)CC2 (configuration not stated)
inactive: HOP-62 > 100 µM | U-251 > 100 µM | NCI-H23 > 100 µM | ACHN > 100 µM | SF-539 > 100 µM | SF-295 30.9 µM | A498 > 100 µM | MOLT-4 > 100 µM | RXF 393 > 100 µM | UACC-62 > 100 µM | SNB-75 > 100 µM

C[C@]12C/C(=C/O)C(=O)C(O)=C1CC[C@@H]1C2CC[C@@]2(C)C1CC[C@@H]2O (some centres not stated)
inactive: HOP-62 46.7 µM | U-251 > 10 µM | NCI-H23 17.4 µM | UO-31 16.3 µM | ACHN 27.8 µM | SF-539 18.7 µM | SF-295 26.7 µM | A498 23.6 µM | MOLT-4 26.4 µM | RXF 393 20.7 µM | UACC-62 16.5 µM | SF-268 24.5 µM | Malme-3M 20.8 µM | SNB-75 20.4 µM

Cc1cc(N(CCC#N)CCC#N)ccc1/C=C/C(=O)Nc1ccccc1Cl
inactive: HOP-62 > 100 µM | U-251 > 100 µM | NCI-H23 > 100 µM | UO-31 > 100 µM | ACHN > 100 µM | SF-539 > 100 µM | SF-295 > 100 µM | A498 > 100 µM | MOLT-4 > 100 µM | UACC-62 > 100 µM | SF-268 > 100 µM | Malme-3M > 100 µM | SNB-75 > 100 µM

O=C1c2ccccc2C(=O)c2c1ccc1c2N=C(c2ccc(Br)cc2)CC(c2cccc3ccccc23)N1 (configuration not stated)
inactive: HOP-62 > 100 µM | SR 57.7 µM | U-251 > 100 µM | NCI-H23 > 100 µM | UO-31 > 100 µM | ACHN > 100 µM | SF-539 > 100 µM | SF-295 > 100 µM | MOLT-4 > 10 µM | RXF 393 > 100 µM | UACC-62 > 100 µM | SF-268 > 100 µM | Malme-3M > 100 µM | SNB-75 94.6 µM

COc1cc(CC2c3cc(OC)c(OC)cc3CCN2C)c(Oc2cc3c(cc2OC)-c2c(OC)c(OC)c(OC)c4c2C(C3)N(C)CC4)cc1OC (configuration not stated)
inactive: HOP-62 17.3 µM | U-251 12.6 µM | NCI-H23 17.1 µM | UO-31 7.93 µM | ACHN 15.8 µM | SF-539 13 µM | SF-295 14.6 µM | A498 15.3 µM | MOLT-4 4.52 µM | RXF 393 2.9 µM | UACC-62 15.2 µM | SF-268 15 µM | Malme-3M 2.49 µM | SNB-75 11.4 µM

Cc1cccc(=O)c([O-])c1.Cc1cccc(=O)c([O-])c1.[Bi+3].[Cl-]
inactive: HOP-62 14 µM | U-251 11.5 µM | NCI-H23 10.9 µM | UO-31 11.5 µM | ACHN 7.31 µM | SF-539 12 µM | SF-295 10.4 µM | A498 16.5 µM | MOLT-4 5.12 µM | RXF 393 8.39 µM | UACC-62 7.96 µM | SF-268 6.61 µM | Malme-3M 11.9 µM | SNB-75 10 µM

NC(=O)CCCC(NCc1c2ccccc2nc2ccccc12)C(=O)O (configuration not stated)
inactive: HOP-62 > 100 µM | SR 25.9 µM | U-251 > 100 µM | NCI-H23 53.1 µM | ACHN 49.8 µM | SF-539 32.7 µM | SF-295 83.4 µM | MOLT-4 17.9 µM | RXF 393 51.8 µM | SF-268 41.6 µM | Malme-3M 77.1 µM | SNB-75 58.2 µM

COC(=O)C1=C(O)c2cc(OC)c(OC)c(OC)c2[C@H](c2cc(OC)c(OC)c(OC)c2)C1C(=O)OC (some centres not stated)
inactive: HOP-62 59.8 µM | U-251 36.5 µM | NCI-H23 31.2 µM | UO-31 41.9 µM | ACHN 46.8 µM | SF-539 14.2 µM | SF-295 13.6 µM | A498 30.1 µM | MOLT-4 22.2 µM | RXF 393 20.7 µM | UACC-62 14 µM | SF-268 42.1 µM | Malme-3M 49.3 µM | SNB-75 38.7 µM

C[C@@H](N[C@H]1CCC[C@@H]1O)c1ccccc1.C[C@@H](N[C@H]1CCC[C@H]1O)c1ccccc1
inactive: HOP-62 51.9 µM | U-251 48.1 µM | NCI-H23 > 100 µM | UO-31 50.5 µM | ACHN > 100 µM | SF-539 > 100 µM | SF-295 40.4 µM | A498 > 100 µM | MOLT-4 51.5 µM | RXF 393 > 100 µM | UACC-62 75 µM | SF-268 > 100 µM | Malme-3M > 100 µM | SNB-75 > 100 µM

CC(C)CCCC(C)[C@H]1CCC2[C@@H]3CCC4Nc5nocc5C[C@]4(C)C3CC[C@@]21C (some centres not stated)
inactive: HOP-62 47.1 µM | U-251 15.7 µM | NCI-H23 14.6 µM | UO-31 14.6 µM | ACHN 14.7 µM | SF-539 18.9 µM | SF-295 19.3 µM | A498 21.6 µM | MOLT-4 18.2 µM | RXF 393 14.8 µM | UACC-62 22.5 µM | SF-268 17.2 µM | Malme-3M 15.5 µM | SNB-75 15.6 µM

COc1ccc(OC)c(CC(C)N)c1 (configuration not stated)
inactive: HOP-62 > 100 µM | U-251 > 100 µM | NCI-H23 > 100 µM | UO-31 > 100 µM | ACHN > 100 µM | SF-539 > 100 µM | SF-295 > 100 µM | A498 > 100 µM | MOLT-4 > 100 µM | RXF 393 > 100 µM | UACC-62 > 100 µM | SF-268 > 100 µM | Malme-3M > 100 µM | SNB-75 > 100 µM

CCCc1ccc(NCc2cc(OC)c(OC)c(OC)c2)cc1
inactive: HOP-62 34.1 µM | U-251 29.6 µM | NCI-H23 22 µM | UO-31 24.7 µM | ACHN 30.6 µM | SF-539 28.3 µM | A498 28.3 µM | MOLT-4 18.2 µM | RXF 393 32.3 µM | UACC-62 26.9 µM | SF-268 27.7 µM | Malme-3M 19.4 µM | SNB-75 29 µM
